Laboratory results: patent US10150737B2, “Compounds for controlling arthropods” (priority 2013, dated 2018)

Assays:
Tetranychus urticae = Tetranychus urticae - spray test, OP-resistant; assay type: in vivo; conditions: bean leaf discs, after 6 days
Method in brief: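 Compound dissolved in acetone/DMF, diluted with water containing 1000 ppm alkylaryl polyglycol ether emulsifier to test concentrations. Bean leaf discs infested with all stages of spider mites were sprayed; % kill determined after 6 days (100% = all mites dead, 0% = none).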

Ctenocephalides felis [1] = assay: Ctenocephalides felis - oral test; assay type: in vivo; conditions: application rate 100 ppm in citrated cattle blood; after 2 days
Method in brief: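 Compound in DMSO diluted into citrated cattle blood, fed through a parafilm membrane to about 20 unfed adult cat fleas. Kill in % scored after 2 days (100% = all dead).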

Spodoptera frugiperda = Spodoptera frugiperda - spray test; assay type: in vivo; conditions: caterpillars on maize leaf discs, after 7 days
Method in brief: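 Maize leaf discs sprayed with compound formulated in acetone/DMF and diluted in water containing 1000 ppm alkylaryl polyglycol ether emulsifier, then infested with armyworm caterpillars after drying. Efficacy scored after 7 days as % caterpillars killed (100% all, 0% none).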

Boophilus microplus = Boophilus microplus - injection test; assay type: in vivo; conditions: application rate 20 μg/animal, injection into engorged adult female ticks, after 7 days
Method in brief: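 Active ingredient in DMSO, 1 μl injected into the abdomen of 5 engorged adult female ticks, then held in a climate-controlled room. Efficacy scored after 7 days from laying of fertile eggs, with non-fertile-looking eggs kept about 42 days for larval hatch; 100% means no fertile eggs.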

Phaedon cochleariae = Phaedon cochleariae - spray test; assay type: in vivo; conditions: larvae on Chinese cabbage leaf discs, after 7 days
Method in brief: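 Chinese cabbage leaf discs sprayed with compound formulated in acetone/DMF and water containing 1000 ppm emulsifier; once dry, infested with mustard beetle larvae. Efficacy (% larvae killed) scored after 7 days.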

Lucilia cuprina = Lucilia cuprina test; assay type: in vivo; conditions: application rate 100 ppm; L1 larvae; after 2 days
Method in brief: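 About 20 L1 larvae placed on minced horsemeat treated with compound, formulated in DMSO and diluted with water to test concentration. Kill in % scored after 2 days (100% = all larvae dead, 0% = none).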

[2] = logP determination by HPLC on a reversed-phase column (C18); assay type: physicochemical; conditions: for logP^a): HPLC-MS method a); for log P: HPLC-MS
Musca domestica = Musca domestica test; assay type: in vivo; conditions: application rate 100 ppm; adult houseflies; after 2 days
Method in brief: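 Percent kill of adult houseflies is recorded 2 days after exposure, where 100% denotes all flies dead and 0% none. Flies (10 per vessel) feed from a sponge carrying sugar solution and the aqueous-diluted DMSO formulation.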

Ctenocephalides felis [3] = assay: Ctenocephalides felis - in vitro contact tests with adult cat fleas; assay type: in vivo; conditions: application rate 5 μg/cm2 (=500 g/ha); after 48 h; fleas dead or moribund
Protocol: For the coating of the test tubes, 9 mg of active ingredient are first dissolved in 1 ml of acetone p.a. and then diluted to the desired concentration with acetone p.a. 250 μl of the solution are distributed homogeneously on the inner walls and base of a 25 ml test tube by turning and rocking on an orbital shaker (rocking rotation at 30 rpm for 2 h). With 900 ppm active ingredient solution and internal surface area 44.7 cm^2, given homogeneous distribution, an area-based dose of 5 μg/cm^2 is achieved.
After the solvent has evaporated off, the tubes are populated with 5-10 adult cat fleas (Ctenocephalides felis), sealed with a perforated plastic lid and incubated in a horizontal position at room temperature and ambient humidity. After 48 h, efficacy is determined. To this end, the test tubes are stood upright and the fleas are knocked to the base of the tube. Fleas which remain motionless at the base or move in an uncoordinated manner are considered to be dead or moribund.
100% efficacy means that all the fleas were dead or moribund. 0% efficacy means that no fleas were harmed.

Myzus persicae = Myzus persicae - spray test; assay type: in vivo; conditions: Chinese cabbage leaf discs, after 6 days
Protocol: Solvent: 78 parts by weight of acetone and 1.5 parts by weight of dimethylformamide
Emulsifier: alkylaryl polyglycol ether
To produce an appropriate active ingredient formulation, 1 part by weight of active ingredient is dissolved using the specified parts by weight of solvent and made up with water containing an emulsifier concentration of 1000 ppm until the desired concentration is attained. To produce further test concentrations, the preparation is diluted with emulsifier-containing water.
Discs of Chinese cabbage leaves (Brassica pekinensis) infested by all stages of the green peach aphid (Myzus persicae) are sprayed with an active ingredient formulation of the desired concentration.
After 6 days, efficacy in % is determined. 100% means that all the aphids have been killed; 0% means that none of the aphids have been killed.

[4] = tested on: Boophilus microplus Parkhurst strain, SP-resistant; assay: Boophilus microplus - dip test; assay type: in vivo; conditions: application rate 100 ppm; dip of engorged adult female ticks; after 7 days
Protocol: Test animals: cattle ticks (Boophilus microplus) Parkhurst strain, SP-resistant
Solvent: dimethyl sulphoxide
10 mg of active ingredient are dissolved in 0.5 ml of dimethyl sulphoxide. For the purpose of producing a suitable formulation, the active ingredient solution is diluted with water to the concentration desired in each case.
This active ingredient formulation is pipetted into tubes. 8-10 adult engorged female cattle ticks (Boophilus microplus) are transferred into a further tube with holes. The tube is immersed into the active ingredient formulation, and all the ticks are completely wetted. After the liquid has run out, the ticks are transferred on filter discs into plastic dishes and stored in a climate-controlled room.
Efficacy is assessed after 7 days by laying of fertile eggs. Eggs which are not visibly fertile are stored in a climate-controlled cabinet until the larvae hatch after about 42 days. An efficacy of 100% means that none of the ticks has laid any fertile eggs; 0% means that all the eggs are fertile.

[5] = reversed-phase column (C18), Table I-T3

Row | SMILES | efficacy (Tetranychus urticae; application rate 500 g/ha) | efficacy (kill) (Ctenocephalides felis [1]) | efficacy (Spodoptera frugiperda; application rate 500 g/ha) | efficacy (laying of fertile eggs) (Boophilus microplus) | efficacy (Phaedon cochleariae; application rate 500 g/ha) | efficacy (kill) (Lucilia cuprina) | logP^a) [2] | logP^a) [2, 5] | efficacy (kill) (Musca domestica) | efficacy (Ctenocephalides felis [3]) | efficacy (Myzus persicae; application rate 500 g/ha) | efficacy (Tetranychus urticae; application rate 100 g/ha) | efficacy (Spodoptera frugiperda; application rate 100 g/ha) | efficacy (Phaedon cochleariae; application rate 100 g/ha) | logP^a) ([2]; reversed-phase column (C18)) | log P [2, 5] | efficacy (Myzus persicae; application rate 100 g/ha) | efficacy (laying of fertile eggs) [4] | pest or weed control at 0.02 mg (Boophilus microplus; Rhipicephalus microplus, 168 h, read-out: efficacy (laying of fertile eggs))
1 | Cc1cc(C(F)(C(F)(F)F)C(F)(F)F)cc(C)c1-n1cc(-c2cncc(C(=O)NC3CC3)c2)cn1 [I-T3-7] | 100% | 100% | 100% | 100% | 100% | 100% | 3.4 | 3.4 | 80% | 100% | 100% | – | – | – | – | – | – | – | –
2 | CCN(C(=O)c1cc(-c2cnn(-c3c(Cl)cc(C(F)(F)F)cc3Cl)c2)cnc1Cl)C1CC1 [I-T3-145] | – | 100% | – | 100% | – | 100% | – | – | 90% | 100% | – | 100% | 100% | 100% | 3.8 | 3.8 | 90% | – | –
3 | Cc1ncc(-c2cnn(-c3c(Cl)cc(C(F)(C(F)(F)F)C(F)(F)F)cc3Cl)c2)cc1C(=O)N(C)C1CC1 [I-T3-133] | – | 100% | – | 100% | – | 100% | – | – | 100% | 100% | – | 100% | 100% | 100% | 3.7 | 3.7 | – | 100% | –
4 | CCc1cc(C(F)(C(F)(F)F)C(F)(F)F)ccc1-n1cc(-c2ccc(Cl)c(C(=O)NC3CC3)c2)cn1 [I-T3-39] | – | 100% | – | 100% | – | 100% | 4.6 | 4.6 | – | – | – | 100% | 100% | 100% | – | – | 90% | 100% | –
5 | Cc1cc(C(F)(C(F)(F)F)C(F)(F)F)cc(C)c1-n1cc(-c2cnc(C)c(C(=O)N(C)C3(C#N)CC3)c2)cn1 [I-T3-115] | 100% | 100% | 100% | 100% | 100% | 100% | – | – | 100% | 100% | – | – | – | – | 3.8 | 3.8 | 100% | 100% | –
6 | Cc1cc(C(F)(C(F)(F)F)C(F)(F)F)cc(C(F)(F)F)c1-n1cc(-c2cnc(C)c(C(=O)N(C)C3CC3)c2)cn1 [I-T3-118] | 90% | 100% | 100% | 100% | 100% | 100% | – | – | 100% | 100% | – | – | – | – | 3.8 | 3.8 | 100% | 100% | –
7 | Cc1cc(C(F)(C(F)(F)F)C(F)(F)F)cc(C)c1-n1cc(-c2cccc(C(=O)NC3CC3)c2)cn1 [I-T3-29] | 100% | 100% | 100% | 100% | 100% | 100% | 3.3 | 3.3 | 100% | 100% | 90% | – | – | – | – | – | – | – | –
8 | Cc1cc(C(F)(C(F)(F)F)C(F)(F)F)cc(C)c1-n1cc(-c2cnc(C)c(C(=O)N(C)C3CC3)c2)cn1 [I-T3-120] | 100% | 100% | 100% | 100% | 100% | 100% | – | – | 100% | 100% | 90% | – | – | – | 3.6 | 3.6 | 100% | 100% | –
9 | CN(C(=O)c1cc(-c2cnn(-c3c(Cl)cc(C(F)(F)F)cc3Cl)c2)cnc1Cl)C1CC1 [I-T3-99] | – | 100% | – | 100% | – | 100% | 3.5 | – | 90% | 100% | – | 100% | 100% | 100% | – | 3.5 | 100% | 90% | –
10 | Cc1ncc(-c2cnn(-c3c(Cl)cc(C(F)(C(F)(F)F)C(F)(F)F)cc3C(F)(F)F)c2)cc1C(=O)N(C)C1CC1 [I-T3-130] | – | 100% | – | 100% | – | 100% | – | – | 100% | 100% | – | 100% | 100% | 100% | 3.8 | 3.8 | 100% | 100% | –
11 | O=C(NC1CC1)c1cc(-c2cnn(-c3c(F)cc(C(F)(F)F)cc3F)c2)ccc1Cl [I-T3-48, 2-chloro-N-cyclopropyl-5-[1-[2,6-difluoro-4-(trifluoromethyl)phenyl]pyrazol-4-yl]benzamide] | – | – | – | – | – | – | – | – | 100% | – | – | – | – | – | – | – | – | 100% | 100%
12 | CN(C(=O)c1cc(-c2cnn(-c3c(Cl)cc(C(F)(C(F)(F)F)C(F)(F)F)cc3C(F)(F)F)c2)cnc1Cl)C1CC1 [I-T3-113] | 100% | 100% | 100% | 100% | 100% | 100% | – | – | 100% | – | – | – | – | – | 4.0 | 4.0 | 100% | 100% | –
13 | N#CC1(NC(=O)c2cc(-c3cnn(-c4c(Cl)cc(OC(F)(F)F)cc4Cl)c3)ccc2Cl)CC1 [I-T3-87] | – | 100% | – | 100% | – | 100% | 3.6 | 3.6 | 100% | 100% | – | 100% | 100% | 100% | – | – | 90% | – | –
